{"source": "PubChem BioAssay (NCI)", "test_in_all_cases": "NCI tumour cell line growth inhibition, 384-well format", "key": {"786-0 renal": {"tested_on": "786-0 renal"}, "A549 NSCLC": {"tested_on": "A549 NSCLC"}, "ACHN renal": {"tested_on": "ACHN renal"}, "BT-549 breast": {"tested_on": "BT-549 breast"}, "CCRF-CEM leukemia": {"tested_on": "CCRF-CEM leukemia"}, "COLO 205 colon": {"tested_on": "COLO 205 colon"}, "DU-145 prostate": {"tested_on": "DU-145 prostate"}, "EKVX NSCLC": {"tested_on": "EKVX NSCLC"}, "HCT-116 colon": {"tested_on": "HCT-116 colon"}, "HOP-62 NSCLC": {"tested_on": "HOP-62 NSCLC"}, "HOP-92 NSCLC": {"tested_on": "HOP-92 NSCLC"}, "HS 578T breast": {"tested_on": "HS 578T breast"}, "HT29 colon": {"tested_on": "HT29 colon"}, "IGROV1 ovarian": {"tested_on": "IGROV1 ovarian"}, "KM12 colon": {"tested_on": "KM12 colon"}, "LOX IMVI melanoma": {"tested_on": "LOX IMVI melanoma"}, "M14 melanoma": {"tested_on": "M14 melanoma"}, "MALME-3M melanoma": {"tested_on": "MALME-3M melanoma"}, "MCF7 breast": {"tested_on": "MCF7 breast"}, "MDA-MB-231 breast": {"tested_on": "MDA-MB-231 breast"}, "MDA-MB-435 melanoma": {"tested_on": "MDA-MB-435 melanoma"}, "MDA-MB-468 breast": {"tested_on": "MDA-MB-468 breast"}, "MOLT-4 leukemia": {"tested_on": "MOLT-4 leukemia"}, "NCI-H226 lung": {"tested_on": "NCI-H226 lung"}, "NCI-H23 lung": {"tested_on": "NCI-H23 lung"}, "NCI-H322M lung": {"tested_on": "NCI-H322M lung"}, "NCI-H460 NSCLC": {"tested_on": "NCI-H460 NSCLC"}, "NCI-H522 lung": {"tested_on": "NCI-H522 lung"}, "NCI/ADR-RES ovarian": {"tested_on": "NCI/ADR-RES ovarian"}, "OVCAR-4 ovarian": {"tested_on": "OVCAR-4 ovarian"}, "OVCAR-5 ovarian": {"tested_on": "OVCAR-5 ovarian"}, "OVCAR-8 ovarian": {"tested_on": "OVCAR-8 ovarian"}, "PC-3 prostate": {"tested_on": "PC-3 prostate"}, "RPMI-8226 leukemia": {"tested_on": "RPMI-8226 leukemia"}, "RXF 393 renal": {"tested_on": "RXF 393 renal"}, "SF-268 CNS": {"tested_on": "SF-268 CNS"}, "SF-295 CNS": {"tested_on": "SF-295 CNS"}, "SK-MEL-2 melanoma": {"tested_on": "SK-MEL-2 melanoma"}, "SK-MEL-28 melanoma": {"tested_on": "SK-MEL-28 melanoma"}, "SK-MEL-5 melanoma": {"tested_on": "SK-MEL-5 melanoma"}, "SK-OV-3 ovarian": {"tested_on": "SK-OV-3 ovarian"}, "SNB-75 CNS": {"tested_on": "SNB-75 CNS"}, "SW-620 colon": {"tested_on": "SW-620 colon"}, "T-47D breast": {"tested_on": "T-47D breast"}, "UACC-257 melanoma": {"tested_on": "UACC-257 melanoma"}, "UACC-62 melanoma": {"tested_on": "UACC-62 melanoma"}, "UO-31 renal": {"tested_on": "UO-31 renal"}}, "note": "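GI50: concentration for 50% inhibition of growth. Definition used: TGI = concentration required for complete inhibition of growth.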", "data": [{"molecule": "NC1(c2ccc(-c3nc4ccn5c(=O)[nH]nc5c4cc3-c3ccccc3)cc2)CCC1", "values": [{"measurement": "GI50", "setting": "786-0 renal", "value": 1.07, "unit": "µM"}, {"measurement": "TGI", "setting": "786-0 renal", "value": 2.32, "unit": "µM"}, {"measurement": "GI50", "setting": "A549 NSCLC", "value": 2.05, "unit": "µM"}, {"measurement": "TGI", "setting": "A549 NSCLC", "value": 9.34, "unit": "µM"}, {"measurement": "GI50", "setting": "ACHN renal", "value": 1.29, "unit": "µM"}, {"measurement": "TGI", "setting": "ACHN renal", "value": 5.45, "unit": "µM"}, {"measurement": "GI50", "setting": "BT-549 breast", "value": 0.875, "unit": "µM"}, {"measurement": "TGI", "setting": "BT-549 breast", "value": 2.52, "unit": "µM"}, {"measurement": "GI50", "setting": "CCRF-CEM leukemia", "value": 0.127, "unit": "µM"}, {"measurement": "TGI", "setting": "CCRF-CEM leukemia", "value": 1.16, "unit": "µM"}, {"measurement": "GI50", "setting": "COLO 205 colon", "value": 0.712, "unit": "µM"}, {"measurement": "TGI", "setting": "COLO 205 colon", "value": 2.65, "unit": "µM"}, {"measurement": "GI50", "setting": "DU-145 prostate", "value": 5.78, "unit": "µM"}, {"measurement": "TGI", "setting": "DU-145 prostate", "value": 17.4, "unit": "µM"}, {"measurement": "GI50", "setting": "EKVX NSCLC", "value": 1.62, "unit": "µM"}, {"measurement": "TGI", "setting": "EKVX NSCLC", "value": 5.92, "unit": "µM"}, {"measurement": "GI50", "setting": "HCT-116 colon", "value": 1.52, "unit": "µM"}, {"measurement": "TGI", "setting": "HCT-116 colon", "value": 2.96, "unit": "µM"}, {"measurement": "GI50", "setting": "HOP-62 NSCLC", "value": 2.68, "unit": "µM"}, {"measurement": "TGI", "setting": "HOP-62 NSCLC", "value": 7.93, "unit": "µM"}, {"measurement": "GI50", "setting": "HOP-92 NSCLC", "value": 1.16, "unit": "µM"}, {"measurement": "TGI", "setting": "HOP-92 NSCLC", "value": 2.66, "unit": "µM"}, {"measurement": "GI50", "setting": "HS 578T breast", "value": 0.704, "unit": "µM"}, {"measurement": "TGI", "setting": "HS 578T breast", "value": 2.17, "unit": "µM"}, {"measurement": "GI50", "setting": "HT29 colon", "value": 1.29, "unit": "µM"}, {"measurement": "TGI", "setting": "HT29 colon", "value": 2.69, "unit": "µM"}, {"measurement": "GI50", "setting": "IGROV1 ovarian", "value": 0.188, "unit": "µM"}, {"measurement": "TGI", "setting": "IGROV1 ovarian", "value": 2.39, "unit": "µM"}, {"measurement": "GI50", "setting": "KM12 colon", "value": 2.32, "unit": "µM"}, {"measurement": "TGI", "setting": "KM12 colon", "value": 7.07, "unit": "µM"}, {"measurement": "GI50", "setting": "LOX IMVI melanoma", "value": 1.58, "unit": "µM"}, {"measurement": "TGI", "setting": "LOX IMVI melanoma", "value": 2.95, "unit": "µM"}, {"measurement": "GI50", "setting": "M14 melanoma", "value": 1.44, "unit": "µM"}, {"measurement": "TGI", "setting": "M14 melanoma", "value": 2.77, "unit": "µM"}, {"measurement": "GI50", "setting": "MALME-3M melanoma", "value": 0.683, "unit": "µM"}, {"measurement": "TGI", "setting": "MALME-3M melanoma", "value": 2.21, "unit": "µM"}, {"measurement": "GI50", "setting": "MCF7 breast", "value": 0.135, "unit": "µM"}, {"measurement": "TGI", "setting": "MCF7 breast", "value": 1.72, "unit": "µM"}, {"measurement": "GI50", "setting": "MDA-MB-231 breast", "value": 2.49, "unit": "µM"}, {"measurement": "TGI", "setting": "MDA-MB-231 breast", "value": 6.52, "unit": "µM"}, {"measurement": "GI50", "setting": "MDA-MB-435 melanoma", "value": 2.36, "unit": "µM"}, {"measurement": "TGI", "setting": "MDA-MB-435 melanoma", "value": 7.21, "unit": "µM"}, {"measurement": "GI50", "setting": "MDA-MB-468 breast", "value": 0.0483, "unit": "µM"}, {"measurement": "TGI", "setting": "MDA-MB-468 breast", "value": 0.514, "unit": "µM"}, {"measurement": "GI50", "setting": "MOLT-4 leukemia", "value": 0.131, "unit": "µM"}, {"measurement": "TGI", "setting": "MOLT-4 leukemia", "value": 0.632, "unit": "µM"}, {"measurement": "GI50", "setting": "NCI-H226 lung", "value": 2.08, "unit": "µM"}, {"measurement": "TGI", "setting": "NCI-H226 lung", "value": 7.36, "unit": "µM"}, {"measurement": "GI50", "setting": "NCI-H23 lung", "value": 2.49, "unit": "µM"}, {"measurement": "TGI", "setting": "NCI-H23 lung", "value": 7.48, "unit": "µM"}, {"measurement": "GI50", "setting": "NCI-H322M lung", "value": 2.44, "unit": "µM"}, {"measurement": "TGI", "setting": "NCI-H322M lung", "value": 10.2, "unit": "µM"}, {"measurement": "GI50", "setting": "NCI-H460 NSCLC", "value": 0.463, "unit": "µM"}, {"measurement": "TGI", "setting": "NCI-H460 NSCLC", "value": 2.86, "unit": "µM"}, {"measurement": "GI50", "setting": "NCI-H522 lung", "value": 2.39, "unit": "µM"}, {"measurement": "TGI", "setting": "NCI-H522 lung", "value": 6.5, "unit": "µM"}, {"measurement": "GI50", "setting": "NCI/ADR-RES ovarian", "value": 3.18, "unit": "µM"}, {"measurement": "TGI", "setting": "NCI/ADR-RES ovarian", "value": 12.1, "unit": "µM"}, {"measurement": "GI50", "setting": "OVCAR-4 ovarian", "value": 2.79, "unit": "µM"}, {"measurement": "TGI", "setting": "OVCAR-4 ovarian", "value": 7.48, "unit": "µM"}, {"measurement": "GI50", "setting": "OVCAR-5 ovarian", "value": 2.13, "unit": "µM"}, {"measurement": "TGI", "setting": "OVCAR-5 ovarian", "value": 7.16, "unit": "µM"}, {"measurement": "GI50", "setting": "OVCAR-8 ovarian", "value": 1.76, "unit": "µM"}, {"measurement": "TGI", "setting": "OVCAR-8 ovarian", "value": 3.96, "unit": "µM"}, {"measurement": "GI50", "setting": "PC-3 prostate", "value": 0.139, "unit": "µM"}, {"measurement": "TGI", "setting": "PC-3 prostate", "value": 3.21, "unit": "µM"}, {"measurement": "GI50", "setting": "RPMI-8226 leukemia", "value": 1.48, "unit": "µM"}, {"measurement": "TGI", "setting": "RPMI-8226 leukemia", "value": 3.24, "unit": "µM"}, {"measurement": "GI50", "setting": "RXF 393 renal", "value": 0.863, "unit": "µM"}, {"measurement": "TGI", "setting": "RXF 393 renal", "value": 2.23, "unit": "µM"}, {"measurement": "GI50", "setting": "SF-268 CNS", "value": 2.73, "unit": "µM"}, {"measurement": "TGI", "setting": "SF-268 CNS", "value": 7.37, "unit": "µM"}, {"measurement": "GI50", "setting": "SF-295 CNS", "value": 1.34, "unit": "µM"}, {"measurement": "TGI", "setting": "SF-295 CNS", "value": 2.72, "unit": "µM"}, {"measurement": "GI50", "setting": "SK-MEL-2 melanoma", "value": 1.59, "unit": "µM"}, {"measurement": "TGI", "setting": "SK-MEL-2 melanoma", "value": 2.95, "unit": "µM"}, {"measurement": "GI50", "setting": "SK-MEL-28 melanoma", "value": 1.2, "unit": "µM"}, {"measurement": "TGI", "setting": "SK-MEL-28 melanoma", "value": 2.5, "unit": "µM"}, {"measurement": "GI50", "setting": "SK-MEL-5 melanoma", "value": 0.777, "unit": "µM"}, {"measurement": "TGI", "setting": "SK-MEL-5 melanoma", "value": 1.93, "unit": "µM"}, {"measurement": "GI50", "setting": "SK-OV-3 ovarian", "value": 0.763, "unit": "µM"}, {"measurement": "TGI", "setting": "SK-OV-3 ovarian", "value": 2.3, "unit": "µM"}, {"measurement": "GI50", "setting": "SNB-75 CNS", "value": 0.239, "unit": "µM"}, {"measurement": "TGI", "setting": "SNB-75 CNS", "value": 1.78, "unit": "µM"}, {"measurement": "GI50", "setting": "SW-620 colon", "value": 4.69, "unit": "µM"}, {"measurement": "TGI", "setting": "SW-620 colon", "value": 8.9, "unit": "µM"}, {"measurement": "GI50", "setting": "T-47D breast", "value": 0.0272, "unit": "µM"}, {"measurement": "TGI", "setting": "T-47D breast", "value": 0.629, "unit": "µM"}, {"measurement": "GI50", "setting": "UACC-257 melanoma", "value": 1.54, "unit": "µM"}, {"measurement": "TGI", "setting": "UACC-257 melanoma", "value": 2.89, "unit": "µM"}, {"measurement": "GI50", "setting": "UACC-62 melanoma", "value": 1.45, "unit": "µM"}, {"measurement": "TGI", "setting": "UACC-62 melanoma", "value": 5.45, "unit": "µM"}, {"measurement": "GI50", "setting": "UO-31 renal", "value": 2.2, "unit": "µM"}, {"measurement": "TGI", "setting": "UO-31 renal", "value": 6.72, "unit": "µM"}]}]}
